Assay results as given in patent US11484539B2, “Compounds and their uses for alleviating menopause-associated symptoms” (Estetra SPRL, priority 2018, dated 2022).

Test system: post-menopausal women
Assay: Weekly frequency of moderate to severe VMS, dose-finding study
Format: in vivo
Conditions: for Difference with placebo, LS adjusted mean, absolute change in weekly frequency of moderate to severe VMS / Difference with placebo, LS adjusted mean, relative change in weekly frequency of moderate to severe VMS: 2.5 mg E4 vs placebo
Excerpt: To determine the Minimum Effective Dose (MED), firstly the selection criteria required that patients presented at least 7 moderate to severe VMS/day or at least 50 moderate to severe VMS/week in the week preceding randomization. Secondly, a placebo group was included in a double-blind fashion. Thirdly, the total patient number was such that statistical significance could be obtained between separate arms of the study. Fourthly, the absolute change from baseline in weekly frequency of moderate to severe VMS was taken into account. An analysis of covariance (ANCOVA) was performed based on the untransformed change in weekly frequency of moderate to severe VMS from baseline. Finally, the change in severity from baseline was evaluated. For this, the Severity Scoring System of VMS was documented by the subjects as follows: • a score of Mild (1) for a sensation of heat without sweating; • a score of Moderate (2) for a sensation of heat with sweating/the subject is able to continue activity; and • a score of Severe (3) for a sensation of heat with sweating/which causes cessation of activity.
Enrolment was approximately 18 months. Individual subject participation was up to 27 weeks: up to 6 weeks pre-screening and washout, up to 4 weeks screening and run-in period, up to 91 days (13 weeks) of E4/placebo treatment followed by 2 weeks (14 days) of progestin therapy and a Follow up visit 1 week after completion of progestin therapy in non-hysterectomised subjects only.
To define the minimum effective dose (MED) of the oral dose of E4 by evaluating changes in frequency and in severity of moderate to severe vasomotor symptoms (VMS).
This was a prospective, multicentre, randomised, placebo-controlled, double-blinded, dose-finding study.
Eligible subjects were hysterectomised and non-hysterectomised post-menopausal women aged 40 to 65 years, inclusive, presenting at least 7 moderate to severe hot flushes/day or at least 50 moderate to severe hot flushes/week.
The subjects have met all of the following inclusion criteria at the randomization visit. These criteria were assessed during the screening period: • 1. Women aged 40 to 65 years, inclusive, presenting at least 7 moderate to severe hot flushes/day or at least 50 moderate to severe hot flushes/week in the week preceding randomization. • 2. Body Mass Index (BMI) between 18.0 and 35.0 kg/m^2, inclusive. • 3. Post-menopausal status defined as levels of follicle stimulating hormone (FSH) >40 IU/L and: • amenorrhoea for at least 12 consecutive months or, • amenorrhoea for at least 6 months with estradiol (E2)<20 pg/mL or, • at least 6 weeks post-surgical bilateral oophorectomy with or without hysterectomy with a copy of the pathology report or a statement on letterhead from the subject's physician documenting both ovaries were removed is required. • 4. For non-hysterectomised women: intact uterus with bi-layer endometrial thickness […] on TVUS. • 5. Negative pregnancy test. • 6. Good physical and mental health, in the judgement of the Principal Investigator (PI), on the basis of medical, surgical and gynaecological history, physical examination, gynaecological examination, clinical laboratory, and vital signs. • 7. Subject has provided signed and dated written informed consent before admission to the study. • 8. Subject is able to understand and comply with the protocol requirements, instructions, and protocol-stated restrictions. Exclusion Criteria:
All treatments (Estetrol, hereinafter, E4, [2.5 mg, 5 mg, 10 mg, 15 mg] capsule) were administered once daily (QD) per os for at least 12 consecutive weeks until the last biological assessments (Day 91 maximum) had been performed.
In order to analyse the data recorded in this study, treatment groups have been compared using an ANCOVA (analysis of covariance) with respect to the change in weekly frequency of moderate to severe VMS from baseline to weeks 4 and 12. […]

[1] = 2.5 mg E4, week 4, ANCOVA with study centre
[2] = 2.5 mg E4, week 4, without site effect
[3] = 2.5 mg E4, week 12, ANCOVA with study centre
[4] = 2.5 mg E4, week 12, without site effect
[5] = week 4, ANCOVA with study centre
[6] = week 12, ANCOVA with study centre
[7] = 5 mg E4, week 4, ANCOVA with study centre
[8] = 5 mg E4, week 4, without site effect
[9] = 5 mg E4, week 12, ANCOVA with study centre
[10] = 5 mg E4, week 12, without site effect

C[C@]12CC[C@@H]3c4ccc(O)cc4CC[C@H]3[C@@H]1[C@@H](O)[C@@H](O)[C@@H]2O [E4, 1,3,5 (10)-estratrien-3,15alpha,16alpha,17beta-tetrol]
LS adjusted mean change from baseline in weekly frequency of moderate to severe VMS [1]: −32.26 | LS adjusted mean relative change (%) from baseline in weekly frequency of moderate to severe VMS [1]: -48.5% | LS adjusted mean change from baseline in weekly frequency of moderate to severe VMS [2]: −32.68 | LS adjusted mean relative change (%) from baseline in weekly frequency of moderate to severe VMS [2]: -49.5% | LS adjusted mean change from baseline in weekly frequency of moderate to severe VMS [3]: −40.13 | LS adjusted mean relative change (%) from baseline in weekly frequency of moderate to severe VMS [3]: -60.6% | LS adjusted mean change from baseline in weekly frequency of moderate to severe VMS [4]: −40.68 | LS adjusted mean relative change (%) from baseline in weekly frequency of moderate to severe VMS [4]: -62.2% | Mean change from baseline in weekly frequency of moderate to severe VMS (2.5 mg E4 QD per os, week 1): −17.28 | Relative change (% from baseline) in weekly frequency of moderate to severe VMS, mean (2.5 mg E4 QD per os, week 1): −23% | Mean change from baseline in weekly frequency of moderate to severe VMS (2.5 mg E4 QD per os, week 2): −25.10 | Relative change (% from baseline) in weekly frequency of moderate to severe VMS, mean (2.5 mg E4 QD per os, week 2): −34% | Mean change from baseline in weekly frequency of moderate to severe VMS (2.5 mg E4 QD per os, week 3): −32.46 | Relative change (% from baseline) in weekly frequency of moderate to severe VMS, mean (2.5 mg E4 QD per os, week 3): −44% | Mean change from baseline in weekly frequency of moderate to severe VMS (2.5 mg E4 QD per os, week 4): −35.89 | Relative change (% from baseline) in weekly frequency of moderate to severe VMS, mean (2.5 mg E4 QD per os, week 4): −49% | Mean change from baseline in weekly frequency of moderate to severe VMS (2.5 mg E4 QD per os, week 5): −37.16 | Relative change (% from baseline) in weekly frequency of moderate to severe VMS, mean (2.5 mg E4 QD per os, week 5): −50% | Mean change from baseline in weekly frequency of moderate to severe VMS (2.5 mg E4 QD per os, week 6): −39.98 | Relative change (% from baseline) in weekly frequency of moderate to severe VMS, mean (2.5 mg E4 QD per os, week 6): −54% | Mean change from baseline in weekly frequency of moderate to severe VMS (2.5 mg E4 QD per os, week 7): −42.44 | Relative change (% from baseline) in weekly frequency of moderate to severe VMS, mean (2.5 mg E4 QD per os, week 7): −57% | Mean change from baseline in weekly frequency of moderate to severe VMS (2.5 mg E4 QD per os, week 8): −43.62 | Relative change (% from baseline) in weekly frequency of moderate to severe VMS, mean (2.5 mg E4 QD per os, week 8): −58% | Mean change from baseline in weekly frequency of moderate to severe VMS (2.5 mg E4 QD per os, week 9): −45.19 | Relative change (% from baseline) in weekly frequency of moderate to severe VMS, mean (2.5 mg E4 QD per os, week 9): −61% | Mean change from baseline in weekly frequency of moderate to severe VMS (2.5 mg E4 QD per os, week 10): −45.54 | Relative change (% from baseline) in weekly frequency of moderate to severe VMS, mean (2.5 mg E4 QD per os, week 10): −61% | Mean change from baseline in weekly frequency of moderate to severe VMS (2.5 mg E4 QD per os, week 11): −44.74 | Relative change (% from baseline) in weekly frequency of moderate to severe VMS, mean (2.5 mg E4 QD per os, week 11): −60% | Mean change from baseline in weekly frequency of moderate to severe VMS (2.5 mg E4 QD per os, week 12): −45.04 | Relative change (% from baseline) in weekly frequency of moderate to severe VMS, mean (2.5 mg E4 QD per os, week 12): −61% | Difference with placebo, LS adjusted mean, absolute change in weekly frequency of moderate to severe VMS [5]: 1.536 | Difference with placebo, LS adjusted mean, relative change in weekly frequency of moderate to severe VMS [5]: 0.005984 | Difference with placebo, LS adjusted mean, absolute change in weekly frequency of moderate to severe VMS (week 4, without site effect): 0.9721 | Difference with placebo, LS adjusted mean, relative change in weekly frequency of moderate to severe VMS (week 4, without site effect): −0.005455 | Difference with placebo, LS adjusted mean, absolute change in weekly frequency of moderate to severe VMS [6]: 3.603 | Difference with placebo, LS adjusted mean, relative change in weekly frequency of moderate to severe VMS [6]: 0.03673 | Difference with placebo, LS adjusted mean, absolute change in weekly frequency of moderate to severe VMS (week 12, without site effect): 3.246 | Difference with placebo, LS adjusted mean, relative change in weekly frequency of moderate to severe VMS (week 12, without site effect): 0.02897 | LS adjusted mean change from baseline in weekly frequency of moderate to severe VMS [7]: −27.44 | LS adjusted mean relative change (%) from baseline in weekly frequency of moderate to severe VMS [7]: -42.2% | LS adjusted mean change from baseline in weekly frequency of moderate to severe VMS [8]: −27.87 | LS adjusted mean relative change (%) from baseline in weekly frequency of moderate to severe VMS [8]: -43.1% | LS adjusted mean change from baseline in weekly frequency of moderate to severe VMS [9]: −40.68 | LS adjusted mean relative change (%) from baseline in weekly frequency of moderate to severe VMS [9]: -60.3% | LS adjusted mean change from baseline in weekly frequency of moderate to severe VMS [10]: −41.01 | LS adjusted mean relative change (%) from baseline in weekly frequency of moderate to severe VMS [10]: -61.4% | Mean change from baseline in weekly frequency of moderate to severe VMS (5 mg E4 QD per os, week 1): −15.04 | Relative change (% from baseline) in weekly frequency of moderate to severe VMS, mean (5 mg E4 QD per os, week 1): −23% | Mean change from baseline in weekly frequency of moderate to severe VMS (5 mg E4 QD per os, week 2): −21.68
